Read-outs that look alike come from different tables or passages of the source.
Assays:
[1] = tested on: human lung cancer cell line A549; experiment: MTT anti-proliferative assay, A549; format: cell-based; settings: read-out: IC50 (μM) A549
Text: (§1) The anti-proliferative activities of 3a–k against human lung cancer cell line (A549), human hepatoma cell line (HepG2), and human breast cancer cell line (MCF-7) were examined. With lupeol and cisplatin as positive controls, the MTT assay was used to evaluate the anti-proliferative activity of all of the synthesized compounds in vitro.
(§2) The MTT (Beyotime, Shanghai, China) colorimetric method was used to test the antitumor activity of the synthetic products. The test compound and the control compound were prepared into the liquid with a concentration of 1, 5, 10, 20, and 40 μmol/L, respectively. The tested tumor cells (A549, HepG2, MCF-7) (Chinese Academy of Sciences, Shanghai, China) were inoculated into 96 well plates with a density of 2 × 10^4 cells/mL, and 90 μL PBS was injected into each well. The 96 well plates were cultured overnight in an incubator, and each well was injected with the same concentration of 10 μL of the test compound. After 48 h, 10 μL of MTT solution was injected into each well. After culture for 4 h, the plates were turned upside down and 100 μL DMSO (Kermel, Tianjin, China) was added. The optical density (OD) values of the compound and the control product were determined at 490 nm wavelength with enzyme-labeled apparatus.

[2] = tested on: human liver cancer cell line HepG2; experiment: MTT anti-proliferative assay, HepG2; format: cell-based; settings: for IC50: read-out: IC50 (μM) HepG2
Text: as §1, §2

[3] = tested on: human breast cancer cell line MCF-7; experiment: MTT anti-proliferative assay, MCF-7; format: cell-based; settings: read-out: IC50 (μM) MCF-7
Text: as §1, §2

A549, HepG2, MCF-7 = experiment: MTT anti-proliferative assay, stated for all three tumor cell lines together; format: cell-based, human; settings: for anti-proliferative activity compared with lupeol: three tested cell lines; for IC50: Homo sapiens, 48 h, A549, HepG2 and MCF-7, 48 h, span or bound over the three lines, read-out: IC50 against all three tumor cell lines
Text: as §1, §2

HepG2 cells [4] = experiment: Annexin V/PI apoptosis by flow cytometry; format: cell-based, human; settings: 48 h, control 3.03%
Procedure: HepG2 cells with logarithmic growth stage were selected and inoculated into a designated confocal six-well plate with 2 mL cell suspension per well (1 × 10^6 cells/mL) and cultured in a sterile incubator for 24 h. […] The cellular preparations were initially rinsed with phosphate-buffered saline (PBS), followed by enzymatic detachment using a 0.25% trypsin solution. Post-collection, the cells underwent centrifugation at 800 revolutions per minute (rpm) for a duration of 5 min to pelletize. The resulting cell pellet was subsequently re-suspended in 1 mL of culture medium designed for cell propagation. The 100 µL cell suspension was transferred into a flow detection tube, with 5 µL AnnexinV added, cultured at room temperature away from light for 15 min, and centrifuged at 800 revolutions per minute (rpm) for a period of 5 min, after which the supernatant containing the staining solution was aspirated. Then, 100 µL of binding buffer for re-suspension and 5 µL of PI dye were added and the solution was mixed well and incubated at low temperature, avoiding light for 15 min. The results were measured by flow cytometry.

HepG2 cells [5] = experiment: AO/EB double staining, cell morphology; format: cell-based, human; settings: HepG2, 48 h, 2, 4 and 8 μmol/L
Procedure: The apoptotic morphological alterations induced by compound 3k·CH3I in HepG2 cells were scrutinized after a 48-h treatment using the acridine orange/ethidium bromide (AO/EB) double staining method, as depicted in Figure 6.
In this study, human hepatoma HepG2 cells were treated with compound 3k·CH3I, and the tested cells were stained by the AO/EB double staining (KeyGEN BioTECH, Nanjing, China) method to observe the morphological changes of the cells. HepG2 cells of logarithmic growth stage were inoculated into confocal six-well plates, and a volume of 2 mL of the cell suspension, adjusted to a concentration of 1 × 10^6 cells per milliliter, was introduced into each well. The cells were cultured in an aseptic constant temperature incubator for 24 h, and 3k·CH3I solution with concentrations of 0, 2, 4, and 8 μmol/L was added successively, and the culture continued for 48 h. The cellular specimens were rinsed with phosphate-buffered saline (PBS) on two occasions, after which 500 µL of staining buffer was introduced to the preparation, followed by storage in a light-protected environment for subsequent analysis. AO (5 µL) and EB (5 µL) staining solutions were added to the six-well plates successively, mixed and incubated at 4 °C for 20 min under light protection, then PBS was added and observed under a fluorescence microscope.

HepG2 cells [6] = experiment: Intracellular ROS, DCFH-DA, flow cytometry; format: cell-based, human; settings: HepG2, 2, 4 and 8 μmol/L, 48 h, compared with the control group
Procedure: Flow cytometry was additionally used to determine the effect of compound 3k·CH3I on ROS levels in HepG2 cells.
HepG2 cells were inoculated into a six-well plate with 2 mL cell suspension per well at a concentration of 1 × 10^6 cells/mL overnight in an incubation chamber maintained at 37 °C with a 5% CO2 atmosphere. The cells were treated with different concentrations of compound 3k·CH3I (0, 2, 4 and 8 μmol/L) and continued to be cultured for 48 h. The cells underwent a PBS rinse to cleanse them, subsequent digestion with a 0.25% trypsin solution to facilitate detachment, and subsequent centrifugation at 800 revolutions per minute (rpm) for 5 min to sediment the cells. The ensuing cell pellet was then re-suspended in 1 mL of nutrient-rich cell culture medium for further experimental procedures. Then, 5 μmol/L DCFH-DA solution was added to each well and they were incubated for 30 min away from light. After incubation, the cells were digested, the supernatant was centrifuged, and the PBS cell suspension was taken and placed in a flow cytometry to determine the experimental results.

HepG2 cells [7] = experiment: Mitochondrial membrane potential depolarization, JC-1; format: cell-based, human; settings: 48 h; for MMP depolarization: JC-1 flow cytometry, control 7.74%
Text: In order to explore the effect of compound 3k·CH3I on MMP, a JC-1 staining kit was used to detect the depolarization of the MMP of human hepatocellular carcinoma HepG2 cells treated with compound 3k·CH3I, as shown in Figure 8.
Flow cytometry was used to detect the intimal potential of HepG2 cells. […] It was concluded that the apoptosis of HepG2 cells was induced by compound 3k·CH3I and was associated with the mitochondrial-mediated endogenous pathway.
HepG2 cells with logarithmic growth stage were selected and inoculated into a designated confocal six-well plate with 2 mL cell suspension per well (1 × 10^6 cells/mL) and cultured in a sterile incubator for 24 h. The cells were treated with different concentrations of 3k·CH3I (0, 2, 4, 8 μmol/L) and continued to be cultured for 48 h. PBS cleans the cells, 0.25% trypsin digests the cells, and collects the cells. After the drug action time was over, 1 mL of pre-configured JC-1 staining solution was added and incubated for 30 min. After JC-1 incubation, the cells were observed by fluorescence microscope, the supernatant was separated, and the PBS cell suspension was taken and the experimental results were determined by flow cytometry.

[8] = tested on: PI3K/AKT/mTOR pathway in HepG2 cells; experiment: Western blotting of PI3K/AKT/mTOR-related proteins; format: cell-based, human; settings: HepG2, 2, 4 and 8 μmol/L, 48 h, relative to control
Procedure: In order to better comprehend the effect of compound 3k·CH3I on the expression of proteins related to the mitochondrial apoptosis pathway, HepG2 cells were treated with 3k·CH3I at different concentrations (0, 2, 4, and 8 μmol/L), and Western blotting was used to determine the expression of related proteins, as shown in Figure 9.
HepG2 cells with logarithmic growth stage were selected to make a single-cell suspension and inoculated into a culture bottle with a cell density of 1 × 10^6 cells/mL. The cells were treated with different concentrations of compound 3k·CH3I (0, 2, 4 and 8 μmol/L) and cultured for 48 h. A mixture of 500 μL of phenylmethylsulfonyl fluoride (PMSF) and radio immunoprecipitation assay (RIPA) lysate was added to each well, and the protein content was determined using the bicinchoninic acid (BCA) assay and denatured at high temperature 30 min later. The protein samples were separated by polyacrylamide gel electrophoresis (SDS-PAGE) and transferred to a polyvinylidene fluoride (PVDF) membrane. The membrane was enclosed in 5% skim milk for 2 h, then specific antibodies of different proteins were added, incubated at 4 °C overnight, and secondary antibodies were added for 2 h. Finally, the gel imager was used for detection. […] The gray-scale of the bands was analyzed by gel imaging image analysis software and the relative protein content was calculated.

[9] = MTT assay, 48 h of treatment, three independent experiments
[10] = Homo sapiens, A549, MTT assay, 48 h of treatment, three independent experiments
[11] = Homo sapiens, HepG2, MTT assay, 48 h of treatment, three independent experiments
[12] = Homo sapiens, MCF7, MTT assay, 48 h of treatment, three independent experiments

Compound	IC50 [1, 10] [µM]	IC50 [2, 11] [µM]	IC50 [3, 12] [µM]	anti-proliferative activity compared with lupeol (A549, HepG2, MCF-7)	further results
N.N.[Cl][Pt][Cl] [Cisplatin, reference compound]	–	–	–	–	IC50 [1, 9]: 4.65 ± 0.52 µM; IC50 [2, 9]: 4.05 ± 0.45 µM; IC50 [3, 9]: 5.27 ± 0.68 µM
C=C(C)[C@@H]1CC[C@]2(C)CC[C@]3(C)C(CCC4[C@@]5(C)CC[C@H](OC(=O)N(C)C)C(C)(C)C5CC[C@]43C)C12 (stereo partly shown) [Compound 3a, Lupeol-3-(dimethyl) Carbamate]	–	–	–	–	IC50 ([1]; Homo sapiens, A549, 48 h): 14 ± 1.03 µM; IC50 ([2]; Homo sapiens, HepG2, 48 h): 11.1 ± 1.45 µM; IC50 ([3]; Homo sapiens, MCF7, 48 h): 10.2 ± 1.24 µM
C=C(C)[C@@H]1CC[C@]2(C)CC[C@]3(C)C(CCC4[C@@]5(C)CC[C@H](OC(=O)N(CC)CC)C(C)(C)C5CC[C@]43C)C12 (stereo partly shown) [Compound 3b, Lupeol-3-(diethyl) Carbamate]	–	–	–	–	IC50 ([1]; Homo sapiens, A549, 48 h): 14 ± 1.25 µM; IC50 ([2]; Homo sapiens, HepG2, 48 h): 13.8 ± 1.23 µM; IC50 ([3]; Homo sapiens, MCF7, 48 h): 12.7 ± 1.43 µM
C=C(C)[C@@H]1CC[C@]2(C)CC[C@]3(C)C(CCC4[C@@]5(C)CC[C@H](OC(=O)N(CCC)CCC)C(C)(C)C5CC[C@]43C)C12 (stereo partly shown) [Compound 3c, Lupeol-3-(dipropyl) Carbamate]	15.5 ± 1.2	5.39 ± 0.77	15.3 ± 1.11	more potent than that of lupeol	–
C=C(C)[C@@H]1CC[C@]2(C)CC[C@]3(C)C(CCC4[C@@]5(C)CC[C@H](OC(=O)N6CCCC6)C(C)(C)C5CC[C@]43C)C12 (stereo partly shown) [Compound 3d, Lupeol-3-(pyrrolidine-1-carboxylate)]	11.3 ± 1.14	17.7 ± 1.35	12.4 ± 1.55	–	–
C=C(C)[C@@H]1CC[C@]2(C)CC[C@]3(C)C(CCC4[C@@]5(C)CC[C@H](OC(=O)N6CCCCC6)C(C)(C)C5CC[C@]43C)C12 (stereo partly shown) [Compound 3e, Lupeol-3-(piperidine-1-carboxylate)]	13.2 ± 1.56	6.91 ± 1.6	14 ± 1.58	more potent than that of lupeol	IC50 (A549, HepG2, MCF-7): < 20 µM
C=C(C)[C@@H]1CC[C@]2(C)CC[C@]3(C)C(CCC4[C@@]5(C)CC[C@H](OC(=O)N6CCOCC6)C(C)(C)C5CC[C@]43C)C12 (stereo partly shown) [Compound 3f, Lupeol-3-(morpholine-1-carboxylate)]	6.76 ± 0.96	10.8 ± 1.52	11.3 ± 1.21	–	–
C=C(C)[C@@H]1CC[C@]2(C)CC[C@]3(C)C(CCC4[C@@]5(C)CC[C@H](OC(=O)N6CCSCC6)C(C)(C)C5CC[C@]43C)C12 (stereo partly shown) [Compound 3g, Lupeol-3-(thiomorpholine-1-carboxylate)]	8.19 ± 1.02	10.1 ± 1.78	7.77 ± 1.09	–	–
C=C(C)[C@@H]1CC[C@]2(C)CC[C@]3(C)C(CCC4[C@@]5(C)CC[C@H](OC(=O)N6CCNCC6)C(C)(C)C5CC[C@]43C)C12 (stereo partly shown) [Compound 3h, Lupeol-3-(piperazine-1-carboxylate)]	12 ± 1.47	11.2 ± 1.45	9.78 ± 1.2	–	IC50 (A549, HepG2, MCF-7): < 20 µM
C=C(C)[C@@H]1CC[C@]2(C)CC[C@]3(C)C(CCC4[C@@]5(C)CC[C@H](OC(=O)N6CCN(C)CC6)C(C)(C)C5CC[C@]43C)C12 (stereo partly shown) [Compound 3i, Lupeol-3-((4-methylpiperazine)-1-carboxylate)]	5.74 ± 0.83	9.43 ± 1.21	8.2 ± 1.46	–	–
C=C(C)C1CCC2(C)CCC3(C)C(CCC4C5(C)CCC(OC(=O)N6CCN(c7ccncc7)CC6)C(C)(C)C5CCC43C)C12 (stereo not shown) [Compound 3k, Lupeol-3-((4-(pyridin-4-yl)piperazine)-1-carboxylate)]	12.1 ± 1.35	14 ± 1.65	19.9 ± 1.82	more potent than that of lupeol	IC50 (A549, HepG2, MCF-7): < 20 µM
C=C(C)C1CCC2(C)CCC3(C)C(CCC4C5(C)CCC(OC(=O)N6CCN(c7cc[n+](C)cc7)CC6)C(C)(C)C5CCC43C)C12 (stereo not shown) [Compound 3k·CH3I]	–	3.13	–	more potent than that of lupeol	activity on HepG2 relative to lupeol ([2]; HepG2, ratio of IC50): about 10 times; total percentage of apoptotic and necrotic cells (HepG2 cells [4]; HepG2, 4 μmol/L): 45.10%; total percentage of apoptotic and necrotic cells (HepG2 cells [4]; HepG2, 8 μmol/L): 55.6%; apoptotic morphological alterations (AO/EB staining) (HepG2 cells [5]): bright red fluorescence due to the chromatin concentration and nuclear fragmentation; ROS levels (HepG2 cells [6]): increased significantly; MMP depolarization (HepG2 cells [7]; HepG2, 2 μmol/L): 17.2%; MMP depolarization (HepG2 cells [7]; HepG2, 4 μmol/L): 27.3%; MMP depolarization (HepG2 cells [7]; HepG2, 8 μmol/L): 48.9%; JC-1 fluorescence (microscopy) (HepG2 cells [7]; HepG2, different concentrations, compared with the control group): the red fluorescence gradually weakened until it eventually disappeared, and the green fluorescence gradually strengthened; expression of P-AKT, P-PI3K and P-mTOR [8]: downregulation; expression of basal forms of AKT, PI3K and mTOR [8]: dose-dependent upregulation
C=C(C)[C@@H]1CC[C@]2(C)CC[C@]3(C)[C@H](CC[C@@H]4[C@@]5(C)CC[C@H](O)C(C)(C)[C@@H]5CC[C@]43C)[C@@H]12 [Lupeol]	35.9 ± 1.58	43.6 ± 1.37	62 ± 1.79	–	–

— paper PMC11396318, “Lupeol-3-carbamate Derivatives: Synthesis and Biological Evaluation as Potential Antitumor Agents” (Molecules, 2024)
